Laboratory results taken from the supplement of paper PMC10307832.

How the values were obtained:
Assay in all cases: relative viability (nuclei count vs DMSO), 5 days (fraction); higher = more cells survive
LCLC-103H = tested on: LCLC-103H
How it was run: (§1)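 Nuclei were stained with Hoechst during a one-step fixation (final 0.05% Triton X-100, 1% formaldehyde, 1 ug/ml Hoechst) carried out 5 days after dosing, then counted on 4× images. The cells, lung cancer lines in 1536-well plates, had been dosed by pin tool the day after seeding with one drug alone or a fixed anchor-drug dose plus five library-drug doses (not always all listed) in √10 steps. Relative viability is the nuclei count in treated wells divided by that in vehicle wells, and each value is the median of duplicate plates.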

SK-LU-1 = tested on: SK-LU-1
How it was run: as §1

EPLC-272H = tested on: EPLC-272H
How it was run: as §1

NCI-H1915 = tested on: NCI-H1915
How it was run: as §1

NCI-H2405 = tested on: NCI-H2405
How it was run: as §1

ABC-1 = tested on: ABC-1
How it was run: as §1

NCI-H647 = tested on: NCI-H647
How it was run: as §1

NCI-H1395 = tested on: NCI-H1395
How it was run: as §1

NCI-H661 = tested on: NCI-H661
How it was run: as §1

RERF-LC-KJ = tested on: RERF-LC-KJ
How it was run: as §1

NCI-H1793 = tested on: NCI-H1793
How it was run: as §1

O=C(O)CCCCC(CCSCc1ccccc1)SCc1ccccc1 (stereo not given) [CPI-613] + COc1cc2c(Oc3ccc(NC(=O)C4(C(=O)Nc5ccc(F)cc5)CC4)cc3F)ccnc2cc1OCCCN1CCOCC1 [Foretinib] (partner 0.25 µM)
relative viability (LCLC-103H; first compound 5 µM): 0.744 | relative viability (LCLC-103H; first compound 15.81 µM): 0.757 | relative viability (LCLC-103H; first compound 50 µM): 0.805 | relative viability (LCLC-103H; first compound 158.11 µM): 0.174 | relative viability (LCLC-103H; first compound 500 µM): 0.243 | relative viability (SK-LU-1; first compound 5 µM): 0.875 | relative viability (SK-LU-1; first compound 15.81 µM): 0.754 | relative viability (SK-LU-1; first compound 50 µM): 0.626 | relative viability (SK-LU-1; first compound 158.11 µM): 0.282 | relative viability (SK-LU-1; first compound 500 µM): 0.092 | relative viability (EPLC-272H; first compound 5 µM): 0.613 | relative viability (EPLC-272H; first compound 15.81 µM): 0.597 | relative viability (EPLC-272H; first compound 50 µM): 0.69 | relative viability (EPLC-272H; first compound 158.11 µM): 0.158 | relative viability (EPLC-272H; first compound 500 µM): 0.0081 | relative viability (NCI-H1915; first compound 5 µM): 1.04 | relative viability (NCI-H1915; first compound 15.81 µM): 1.09 | relative viability (NCI-H1915; first compound 50 µM): 1.06 | relative viability (NCI-H1915; first compound 158.11 µM): 0.309 | relative viability (NCI-H1915; first compound 500 µM): 0.132 | relative viability (NCI-H2405; first compound 5 µM): 1.08 | relative viability (NCI-H2405; first compound 15.81 µM): 1.03 | relative viability (NCI-H2405; first compound 50 µM): 0.995 | relative viability (NCI-H2405; first compound 158.11 µM): 0.93 | relative viability (NCI-H2405; first compound 500 µM): 0.876 | relative viability (ABC-1; first compound 5 µM): 1.14 | relative viability (ABC-1; first compound 15.81 µM): 0.929 | relative viability (ABC-1; first compound 50 µM): 0.996 | relative viability (ABC-1; first compound 158.11 µM): 0.243 | relative viability (ABC-1; first compound 500 µM): 0.0969 | relative viability (NCI-H647; first compound 5 µM): 0.992 | relative viability (NCI-H647; first compound 15.81 µM): 1.2 | relative viability (NCI-H647; first compound 50 µM): 1.15 | relative viability (NCI-H647; first compound 158.11 µM): 0.34 | relative viability (NCI-H647; first compound 500 µM): 0.0186 | relative viability (NCI-H1395; first compound 5 µM): 0.973 | relative viability (NCI-H1395; first compound 15.81 µM): 0.971 | relative viability (NCI-H1395; first compound 50 µM): 0.916 | relative viability (NCI-H1395; first compound 158.11 µM): 0.94 | relative viability (NCI-H1395; first compound 500 µM): 0.961 | relative viability (NCI-H661; first compound 5 µM): 0.982 | relative viability (NCI-H661; first compound 15.81 µM): 1.06 | relative viability (NCI-H661; first compound 50 µM): 0.841 | relative viability (NCI-H661; first compound 158.11 µM): 0.371 | relative viability (NCI-H661; first compound 500 µM): 0.142 | relative viability (RERF-LC-KJ; first compound 5 µM): 0.878 | relative viability (RERF-LC-KJ; first compound 15.81 µM): 0.763 | relative viability (RERF-LC-KJ; first compound 50 µM): 0.889 | relative viability (RERF-LC-KJ; first compound 158.11 µM): 0.882 | relative viability (RERF-LC-KJ; first compound 500 µM): 0.851 | relative viability (NCI-H1793; first compound 5 µM): 0.608 | relative viability (NCI-H1793; first compound 15.81 µM): 0.618 | relative viability (NCI-H1793; first compound 50 µM): 0.827 | relative viability (NCI-H1793; first compound 158.11 µM): 0.385 | relative viability (NCI-H1793; first compound 500 µM): 0.0145
